For assay [1], the target named is T1, HiBit-BRM fusion protein (Homo sapiens, UniProt P51531).
T1 construct: expressed in transfected cells
Nature of the assay: HiBiT-BRM cell-based degradation assay (Nano-Glo HiBiT Lytic Detection, 24 h). To be noted: HeLa cell line expressing HiBiT-BRM; for DC50: read-out: BRM HiBit Degradation IC50. An outline of the steps: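 Stable HiBiT-BRM HeLa line; 24 h compound exposure, top final 30 μM, 3-fold, 10 pts in duplicate. Lytic HiBiT/LgBiT luminescence readout. % degradation vs DMSO (0%) and 2 μM known BRM/BRG1 degrader (100%).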
On the technique in general: With HiBiT, luminescence reflects the tagged protein that the partner subunit can reach.

Assay [2] has as its target T2, HiBit-BRG1 fusion protein (Homo sapiens, UniProt P51532).
T2 construct: expressed in transfected cells
Put plainly: HiBiT-BRG1 cell-based degradation assay (Nano-Glo HiBiT Lytic Detection, 24 h). The settings on record: HeLa cell line expressing HiBit-BRG1 and LgBit; for Dmax: read-out: BRG1 HiBit Degradation Maximum (%); for DC50: read-out: BRMG1 HiBit Degradation IC50. The method, boiled down: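 Percent degradation derived from lytic HiBiT signal, normalized to DMSO-treated cells and to cells given 2 μM of a known BRM/BRG1 degrader. The HeLa line stably expressed HiBit-BRG1 and LgBit; treatment lasted 24 h at 5000 cells per well.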

This note sets out measurements from patent US20240024488A1, “COMPOUNDS AND USES THEREOF” (Foghorn Therapeutics Inc., priority 2020, published 2024).

Some results are limits rather than exact numbers.

T2 sequence (P51532 whole entry, the tested form may be a part): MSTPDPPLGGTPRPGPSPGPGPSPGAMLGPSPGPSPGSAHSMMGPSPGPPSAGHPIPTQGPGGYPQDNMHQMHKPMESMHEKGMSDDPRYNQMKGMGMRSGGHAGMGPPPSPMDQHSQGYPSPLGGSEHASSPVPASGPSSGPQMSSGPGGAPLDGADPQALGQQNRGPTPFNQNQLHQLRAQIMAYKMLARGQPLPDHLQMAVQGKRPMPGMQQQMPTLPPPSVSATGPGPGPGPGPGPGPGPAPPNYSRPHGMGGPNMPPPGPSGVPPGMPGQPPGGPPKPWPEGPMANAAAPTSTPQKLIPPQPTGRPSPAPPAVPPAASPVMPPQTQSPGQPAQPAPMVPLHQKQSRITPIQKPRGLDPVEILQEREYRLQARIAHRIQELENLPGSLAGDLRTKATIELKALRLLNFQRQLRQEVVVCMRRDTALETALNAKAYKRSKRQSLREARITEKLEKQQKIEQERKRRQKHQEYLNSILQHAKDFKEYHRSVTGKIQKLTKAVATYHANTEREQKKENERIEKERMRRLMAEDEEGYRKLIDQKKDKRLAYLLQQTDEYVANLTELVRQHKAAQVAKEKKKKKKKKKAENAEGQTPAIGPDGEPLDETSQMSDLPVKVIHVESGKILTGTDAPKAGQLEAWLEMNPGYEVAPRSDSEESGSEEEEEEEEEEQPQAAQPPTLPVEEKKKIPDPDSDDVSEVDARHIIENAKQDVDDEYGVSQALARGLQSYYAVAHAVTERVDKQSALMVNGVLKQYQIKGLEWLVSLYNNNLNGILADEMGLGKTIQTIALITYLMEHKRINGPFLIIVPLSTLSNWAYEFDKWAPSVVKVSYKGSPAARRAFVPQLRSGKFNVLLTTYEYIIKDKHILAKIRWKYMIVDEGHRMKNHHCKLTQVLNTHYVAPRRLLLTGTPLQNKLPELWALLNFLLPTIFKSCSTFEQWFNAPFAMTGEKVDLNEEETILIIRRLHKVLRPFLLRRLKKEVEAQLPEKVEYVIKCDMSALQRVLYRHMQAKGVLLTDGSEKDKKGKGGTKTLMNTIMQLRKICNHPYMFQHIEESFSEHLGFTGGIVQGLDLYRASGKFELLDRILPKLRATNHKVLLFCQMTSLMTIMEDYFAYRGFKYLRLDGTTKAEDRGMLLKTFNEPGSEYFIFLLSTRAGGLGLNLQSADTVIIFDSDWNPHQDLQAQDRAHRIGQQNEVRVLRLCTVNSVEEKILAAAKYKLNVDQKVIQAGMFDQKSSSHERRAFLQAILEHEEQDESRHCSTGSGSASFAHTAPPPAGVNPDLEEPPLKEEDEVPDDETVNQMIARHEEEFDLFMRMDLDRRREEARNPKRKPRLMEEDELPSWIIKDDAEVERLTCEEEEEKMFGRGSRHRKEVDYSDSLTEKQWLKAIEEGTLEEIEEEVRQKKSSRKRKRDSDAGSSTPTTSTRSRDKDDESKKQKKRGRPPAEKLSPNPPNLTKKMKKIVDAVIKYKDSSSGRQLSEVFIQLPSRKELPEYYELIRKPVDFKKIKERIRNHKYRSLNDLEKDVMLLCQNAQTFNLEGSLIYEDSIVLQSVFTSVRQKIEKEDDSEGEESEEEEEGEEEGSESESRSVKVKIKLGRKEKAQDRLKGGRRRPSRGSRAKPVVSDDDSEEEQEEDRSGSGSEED
T1 sequence (P51531 whole entry, the tested form may be a part): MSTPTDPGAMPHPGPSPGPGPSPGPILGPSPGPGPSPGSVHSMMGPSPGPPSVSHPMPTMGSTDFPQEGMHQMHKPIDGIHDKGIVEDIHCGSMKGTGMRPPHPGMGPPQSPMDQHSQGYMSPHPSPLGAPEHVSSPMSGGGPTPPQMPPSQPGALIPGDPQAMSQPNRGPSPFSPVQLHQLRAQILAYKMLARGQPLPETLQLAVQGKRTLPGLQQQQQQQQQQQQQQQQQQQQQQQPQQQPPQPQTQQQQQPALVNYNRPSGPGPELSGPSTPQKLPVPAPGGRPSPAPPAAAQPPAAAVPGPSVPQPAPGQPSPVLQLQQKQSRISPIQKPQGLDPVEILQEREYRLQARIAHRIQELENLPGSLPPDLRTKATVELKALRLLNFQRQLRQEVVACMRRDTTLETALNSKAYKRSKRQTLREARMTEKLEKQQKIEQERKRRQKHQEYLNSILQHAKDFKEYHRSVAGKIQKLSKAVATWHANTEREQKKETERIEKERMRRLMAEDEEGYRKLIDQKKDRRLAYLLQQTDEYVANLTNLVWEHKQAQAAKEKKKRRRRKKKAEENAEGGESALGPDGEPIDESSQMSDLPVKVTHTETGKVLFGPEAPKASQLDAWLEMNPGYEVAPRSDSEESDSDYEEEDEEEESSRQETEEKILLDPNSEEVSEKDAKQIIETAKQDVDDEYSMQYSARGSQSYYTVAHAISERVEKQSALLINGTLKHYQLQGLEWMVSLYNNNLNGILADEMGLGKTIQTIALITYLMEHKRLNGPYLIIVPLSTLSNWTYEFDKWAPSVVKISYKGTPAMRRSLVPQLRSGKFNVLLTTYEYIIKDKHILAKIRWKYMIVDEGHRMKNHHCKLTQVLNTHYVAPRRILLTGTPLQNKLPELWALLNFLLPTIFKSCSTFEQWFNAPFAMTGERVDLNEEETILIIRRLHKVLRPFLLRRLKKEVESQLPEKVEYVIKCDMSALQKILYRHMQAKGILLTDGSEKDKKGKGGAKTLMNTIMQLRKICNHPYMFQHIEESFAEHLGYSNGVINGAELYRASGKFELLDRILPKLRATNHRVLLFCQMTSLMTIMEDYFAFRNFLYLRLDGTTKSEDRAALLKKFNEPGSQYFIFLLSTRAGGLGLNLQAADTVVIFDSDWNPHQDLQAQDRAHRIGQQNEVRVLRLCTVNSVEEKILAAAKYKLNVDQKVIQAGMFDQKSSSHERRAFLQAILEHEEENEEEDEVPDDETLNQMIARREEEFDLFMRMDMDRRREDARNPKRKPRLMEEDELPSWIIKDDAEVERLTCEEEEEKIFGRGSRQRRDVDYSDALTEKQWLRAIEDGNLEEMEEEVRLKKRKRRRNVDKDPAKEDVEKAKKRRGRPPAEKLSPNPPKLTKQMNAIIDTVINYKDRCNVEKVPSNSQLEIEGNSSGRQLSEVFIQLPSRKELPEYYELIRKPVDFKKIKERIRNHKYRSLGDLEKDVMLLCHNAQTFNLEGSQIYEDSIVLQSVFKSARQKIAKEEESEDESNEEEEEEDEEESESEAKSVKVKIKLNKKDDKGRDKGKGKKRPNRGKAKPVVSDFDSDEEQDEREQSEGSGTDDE

On to `Cc1ncsc1-c1ccc([C@H](C)NC(=O)[C@@H]2C[C@@H](O)CN2C(=O)[C@@H](c2cc(N3C[C@@H]4C[C@H]3CN4C(=O)[C@H]3C[C@@]4(Cc5cc(-c6ccccc6O)nnc5N4)C3)no2)C(C)C)cc1` (racemic) [Compound 72, (2S,4R)-4-hydroxy-1-((R)-2-(3-((1S,4S)-5-((1S,3s)-3′-(2-hydroxyphenyl)-5′,7′-dihydrospiro[cyclobutane-1,6′-pyrrolo[2,3-c]pyridazine]-3-carbonyl)-2,5-diazabicyclo[2.2.1]heptan-2-yl)isoxazol-5-yl)-3-methylbutanoyl)-N-((S)-1-(4-(4-methylthiazol-5-yl)phenyl)ethyl)pyrrolidine-2-carboxamide], for which, in assay [1], the “BRM HiBit Degradation Maximum (%)” value is “B (“B” indicates maximum degradation ≥ 50%)” and the DC50 is over 1000 nM. In addition, the Dmax in assay [2] is under 50%.
Take `Cc1ncsc1-c1ccc([C@H](C)NC(=O)[C@@H]2C[C@@H](O)CN2C(=O)[C@@H](c2cc(CCCN3CC(c4cc5cc(-c6ccccc6O)nnc5[nH]4)C3)no2)C(C)C)cc1` (single isomer, unassigned) [Compound 204]: in assay [1], the “BRM HiBit Degradation Maximum (%)” value is given as “A (“A” indicates maximum degradation ≥ 75%)” and the DC50 is over 100 nM. The Dmax in assay [2] is under 50%.
In the case of `Cc1ncsc1-c1ccc([C@H](C)NC(=O)[C@@H]2C[C@@H](O)CN2C(=O)[C@@H](c2cc(OCCN3CC(n4c(=O)[nH]c5nnc(-c6ccccc6O)cc54)C3)no2)C(C)C)cc1` (racemic) [Compound 206, (2S,4R)-4-hydroxy-1-[(2R)-2-[3-(2-{3-[3-(2-hydroxyphenyl)-6-oxo-7H-imidazo[4,5-c]pyridazin-5-yl]azetidin-1-yl}ethoxy)-1,2-oxazol-5-yl]-3-methylbutanoyl]-N-[(1S)-1-[4-(4-methyl-1,3-thiazol-5-yl)phenyl]ethyl]pyrrolidine-2-carboxamide], the “BRM HiBit Degradation Maximum (%)” value in assay [1] was “C (“C” indicates maximum degradation < 50%)”. Further, in assay [2], the Dmax was under 50%.
Turning to `Cc1ncsc1-c1ccc(CNC(=O)[C@@H]2C[C@@H](O)CN2C(=O)[C@@H](NC(=O)CCCCC(=O)N2CC(c3c[nH]c4nnc(-c5ccccc5O)cc34)C2)C(C)(C)C)cc1` [Compound 47, (2S,4R)-4-hydroxy-1-((S)-2-(6-(3-(3-(2-hydroxyphenyl)-7H-pyrrolo[2,3-c]pyridazin-5-yl)azetidin-1-yl)-6-oxohexanamido)-3,3-dimethylbutanoyl)-N-(4-(4-methylthiazol-5-yl)benzyl)pyrrolidine-2-carboxamide], the “BRM HiBit Degradation Maximum (%)” value in assay [1] is recorded as “C (“C” indicates maximum degradation < 50%)”. In assay [2], the Dmax is under 50%.
For `Cc1ncsc1-c1ccc([C@H](C)NC(=O)[C@@H]2C[C@@H](O)CN2C(=O)[C@@H](c2cc(OCCN3CC(c4cc5cc(-c6ccccc6O)nnc5n4C)C3)no2)C(C)C)cc1` (racemic) [Compound 140, (2S,4R)-4-hydroxy-1-((R)-2-(3-(2-(3-(3-(2-hydroxyphenyl)-7-methyl-7H-pyrrolo[2,3-c]pyridazin-6-yl)azetidin-1-yl)ethoxy)isoxazol-5-yl)-3-methylbutanoyl)-N-((S)-1-(4-(4-methylthiazol-5-yl)phenyl)ethyl)pyrrolidine-2-carboxamide] the same measures were “C (“C” indicates maximum degradation < 50%)” and under 50%.
`Cc1ncsc1-c1ccc([C@H](C)NC(=O)[C@@H]2C[C@@H](O)CN2C(=O)C(c2cc(N3CCC(C(=O)N4CC(c5c[nH]c6nnc(-c7ccccc7O)cc56)C4)CC3)no2)C(C)C)cc1` (mixture of isomers) [Compound 236, (2S,4R)-4-hydroxy-1-((R)-2-(3-(4-(3-(3-(2-hydroxyphenyl)-7H-pyrrolo[2,3-c]pyridazin-5-yl)azetidine-1-carbonyl)piperidin-1-yl)isoxazol-5-yl)-3-methylbutanoyl)-N-((S)-1-(4-(4-methylthiazol-5-yl)phenyl)ethyl)pyrrolidine-2-carboxamide]: the “BRM HiBit Degradation Maximum (%)” value in assay [1] is given as “C (“C” indicates maximum degradation < 50%)”. The Dmax in assay [2] was under 50%.
The like results for `Cc1ncsc1-c1ccc([C@H](C)NC(=O)[C@@H]2C[C@@H](O)CN2C(=O)[C@@H](c2cc(OCCN3C[C@@H]4[C@H](C3)[C@H]4c3c[nH]c4nnc(-c5ccccc5O)cc34)no2)C(C)C)cc1` (racemic) [Compound 210, (2S,4R)-4-hydroxy-1-((R)-2-(3-(2-((1R,5S,6S)-6-(3-(2-hydroxyphenyl)-7H-pyrrolo[2,3-c]pyridazin-5-yl)-3-azabicyclo[3.1.0]hexan-3-yl)ethoxy)isoxazol-5-yl)-3-methylbutanoyl)-N-((S)-1-(4-(4-methylthiazol-5-yl)phenyl)ethyl)pyrrolidine-2-carboxamide] were, in that order, “C (“C” indicates maximum degradation < 50%)” and under 50%.
The like results for `O=C1CCC(N2C(=O)c3ccc(N4CC5(CN(CCC(=O)N6CC(c7cc8cc(-c9ccccc9O)nnc8[nH]7)C6)C5)C4)cc3C2=O)C(=O)N1` (centres unmarked) [Compound 34, 2-(2,6-dioxopiperidin-3-yl)-5-(6-(3-(3-(3-(2-hydroxyphenyl)-7H-pyrrolo[2,3-c]pyridazin-6-yl)azetidin-1-yl)-3-oxopropyl)-2,6-diazaspiro[3.3]heptan-2-yl)isoindoline-1,3-dione] were, in that order, “C (“C” indicates maximum degradation < 50%)” and under 50%.
For `Cc1ncsc1-c1ccc([C@H](C)NC(=O)[C@@H]2C[C@@H](O)CN2C(=O)[C@@H](c2cc(OCCN3CC4(C3)CN(c3cc5cc(-c6ccccc6O)nnc5[nH]3)C4)no2)C(C)C)cc1` (racemic) [Compound 226, (2S,4R)-4-hydroxy-1-[(2R)-2-[3-(2-{6-[3-(2-hydroxyphenyl)-7H-pyrrolo[2,3-c]pyridazin-6-yl]-2,6-diazaspiro[3.3]heptan-2-yl}ethoxy)-1,2-oxazol-5-yl]-3-methylbutanoyl]-N-[(1S)-1-[4-(4-methyl-1,3-thiazol-5-yl)phenyl]ethyl]pyrrolidine-2-carboxamide], in assay [1], the “BRM HiBit Degradation Maximum (%)” value was “A (“A” indicates maximum degradation ≥ 75%)” and the DC50 was over 100 nM. Moreover, in assay [2], the Dmax is over 75% and the DC50 was over 100 nM.
With `Cc1ncsc1-c1ccc([C@H](C)NC(=O)[C@@H]2C[C@@H](O)CN2C(=O)[C@H](c2cc(N3CCN(C(=O)c4cc5cc(-c6ccccc6O)nnc5[nH]4)CC3)no2)C(C)C)cc1` (racemic) [Compound 252, (2S,4R)-4-hydroxy-1-((S)-2-(3-(4-(3-(2-hydroxyphenyl)-7H-pyrrolo[2,3-c]pyridazine-6-carbonyl)piperazin-1-yl)isoxazol-5-yl)-3-methylbutanoyl)-N-((S)-1-(4-(4-methylthiazol-5-yl)phenyl)ethyl)pyrrolidine-2-carboxamide], in assay [1], the “BRM HiBit Degradation Maximum (%)” value is recorded as “C (“C” indicates maximum degradation < 50%)”. In addition, in assay [2], the Dmax was under 50%.
Take `Cc1ncsc1-c1ccc(CNC(=O)[C@@H]2C[C@@H](O)CN2C(=O)[C@@H](NC(=O)CN2CC(c3cc4cc(-c5ccccc5O)nnc4[nH]3)C2)C(C)(C)C)cc1` (racemic) [Compound 61, (2S,4R)-4-hydroxy-1-((S)-2-(2-(3-(3-(2-hydroxyphenyl)-7H-pyrrolo[2,3-c]pyridazin-6-yl)azetidin-1-yl)acetamido)-3,3-dimethylbutanoyl)-N-(4-(4-methylthiazol-5-yl)benzyl)pyrrolidine-2-carboxamide]: in assay [1], the “BRM HiBit Degradation Maximum (%)” value is reported as “A (“A” indicates maximum degradation ≥ 75%)” and the DC50 is over 1000 nM. Further, in assay [2], the Dmax is over 75% and the DC50 was over 1000 nM.
As to `Cc1ncsc1-c1ccc([C@H](C)NC(=O)[C@@H]2C[C@@H](O)CN2C(=O)[C@@H](c2cc(OCCN3CC[C@H](c4[nH]c5nnc(-c6ccccc6O)cc5c4C)C3)no2)C(C)C)cc1` (racemic) [Compound 258, (2S,4R)-4-hydroxy-1-((R)-2-(3-(2-((S)-3-(3-(2-hydroxyphenyl)-5-methyl-7H-pyrrolo[2,3-c]pyridazin-6-yl)pyrrolidin-1-yl)ethoxy)isoxazol-5-yl)-3-methylbutanoyl)-N-((S)-1-(4-(4-methylthiazol-5-yl)phenyl)ethyl)pyrrolidine-2-carboxamide], in assay [1], the “BRM HiBit Degradation Maximum (%)” value is recorded as “A (“A” indicates maximum degradation ≥ 75%)” and the DC50 was under 10 nM. In addition, in assay [2], the Dmax is over 75% and the DC50 was over 10 nM.
Turning to `Cc1ncsc1-c1ccc([C@H](C)NC(=O)[C@@H]2C[C@@H](O)CN2C(=O)[C@@H](c2cc(N3CCN(C(=O)[C@H]4C[C@@]5(Cc6cc(-c7ccccc7O)nnc6N5)C4)CC3)no2)C(C)C)cc1` (racemic) [Compound 80, (2S,4R)-4-hydroxy-1-((R)-2-(3-(4-((1R,3s)-3′-(2-hydroxyphenyl)-5′,7′-dihydrospiro[cyclobutane-1,6′-pyrrolo[2,3-c]pyridazine]-3-carbonyl)piperazin-1-yl)isoxazol-5-yl)-3-methylbutanoyl)-N-((S)-1-(4-(4-methylthiazol-5-yl)phenyl)ethyl)pyrrolidine-2-carboxamide], in assay [1], the “BRM HiBit Degradation Maximum (%)” value is given as “A (“A” indicates maximum degradation ≥ 75%)” and the DC50 is over 10 nM. Also, the Dmax in assay [2] is under 50%.
